Experimental data: patent US20240150809A1, “Method of Evaluating the Biofilm Detachment Efficacy of Compositions” (Colgate-Palmolive Company, priority 2021, published 2024)

Tested on: S. gordonii biofilms
Assay: adapted spinning-disc rheometry analysis of biofilm detachment
Format: cell-based, Streptococcus gordonii
Conditions: for biofilm momentum coefficient (CB): 200-300 rad·s^−1, vs untreated; for area under the curve (AUC) of the torque-angular velocity curves: whole analyzed range
Method: Spinning-disc rheology was adapted to analyze biofilm detachment from surfaces. S. gordonii biofilms were grown on 3D printed coupons for 5 days. The model for the coupons was designed in SolidWorks (Dassault Systèmes). Coupons were 3D printed using a Prime 30 PolyJet 3D printer (Objet, Stratasys) using RGD720 photopolymer for the printing material (Stratasys). The coupon was printed at a resolution of 0.0008 inches. The coupon surface was sanded used P300 sandpaper to create a rougher surface for bacteria to attach. Prior to inoculating, coupons were sterilized in 70% ethanol.
S. gordonii wild type strain DL1 was used in this study. Overnight cultures were prepared by inoculating 10 mL of brain heart infusion broth (Oxoid; BHI) with a colony of S. gordonii and incubated statically overnight at 37° C. with 5% CO2. Sterile 40 mm coupons were placed in a Petri dish containing 40 mL BHI, supplemented with 0.5% sucrose. Coupons were inoculated with 400 μL of overnight culture. Biofilms were incubated in a humidified chamber at 37° C. with 5% CO2, on an orbital shaker at 150 rpm. Every 24 h the media was replenished. […]
Biofilms were analyzed on a Discovery Hybrid Rheometer-2 (HD-2) (TA Instruments). A 15×15 cm square clear acrylic container filled with 2.8 L reverse osmosis water was transferred onto the Peltier plate. Biofilm-coated coupons were immersed and attached to the rheometer shaft using a custom-made adapter probe. The gap distance between the bottom of the container and the coupon was set to 3.5 cm (FIG. 1). Immersed coupons were spun at an angular velocity (ω) range of 0.1-300 rad·s^−1, incrementing the speed over 360 seconds, and the resulting torque (T), a measurement of resistance to rotation, was measured across this velocity range.
Data was collected using TRIOS v5 software (TA instruments), with raw data exported in excel. Data was transformed, and calculations performed in excel. Data was visualized and statistical analysis performed in GraphPad Prism v8 (GraphPad Software). All statistical comparisons were performed using a Student's t-test, with p<0.05 indicating significance.
To more easily observe the changes in torque associated with biofilm detachment, the torque-angular velocity data was linearized and transformed. The data was linearized by taking the square root of the torque. The running slope of 5 data points of the linearized data was determined. […] Therefore, final transformed data is presented as the running slope of the linearized data against angular velocity, starting at 20 rad·s^−1.
Five day S. gordonii biofilms were treated with either PBS (untreated control) or 4% arginine for 2 min. […] After treatment, Biofilms were analyzed on a Discovery Hybrid Rheometer-2 (HD-2) (TA Instruments) as described above. Four biological replicates were analyzed, each with 2-4 technical replicates (total N=11).
To quantify the mechanical differences between arginine treated and untreated S. gordonii biofilms, the biofilm momentum coefficient (CB) across the turbulent regimes of 200-300 rad·s^−1 was determined according to equation 1: […]
To quantify these differences, the angular velocity where the first reduction in torque occurred was converted to the shear stress acting on the outer edge of the coupon, according to equation 3.
Next, the biofilm disrupting effect of arginine was compared with that of glycine and lysine by the spinning-disc rheometry assay to determine if biofilm disrupting effect is a general property of amino acids, or specific to arginine.

[1] = 5 day S. gordonii biofilms, 4% arginine for 2 min, vs PBS untreated control
[2] = 5 day S. gordonii biofilms, 4% arginine for 2 min, vs untreated
[3] = Seven day S. gordonii biofilms, 4% arginine or 0.23M glycine or lysine for 2 min, equation 3, vs untreated
[4] = Seven day S. gordonii biofilms, 4% arginine or 0.23M glycine or lysine for 2 min, vs untreated

Structure (SMILES)	torque across angular velocity range (5 day S. gordonii biofilms, 4% arginine for 2 min, 0.1-300 rad·s^−1, vs untreated)	biofilm momentum coefficient (CB) (5 day S. gordonii biofilms, 4% arginine for 2 min)	shear stress at the first reduction in torque (initiation of detachment) (5 day S. gordonii biofilms, 4% arginine for 2 min, equation 3, vs untreated)	angular velocity at which changes in torque associated with biofilm detachment events occurred (5 day S. gordonii biofilms, 4% arginine for 2 min, transformed analysis, vs untreated)	amount of remaining biofilm attached to the coupon after rheometry analysis [1]	biofilm morphology (macroscopic) [1]	changes in torque in transformed data (running slope of torque^1/2 vs angular velocity) [2]	area under the curve (AUC) of the torque-angular velocity curves [2]	biofilm momentum coefficient (CB) (Seven day S. gordonii biofilms, 4% arginine or 0.23M glycine or lysine for 2 min)	shear stress at the first reduction in torque (detachment shear stress) [3]	torque (torque-displacement profile) [4]	area under the curve (AUC) of the torque-angular velocity curves [4]
N=C(N)NCCC[C@H](N)C(=O)O [arginine]	reduced torque	no statistical difference	significantly lower shear stresses	lower angular velocity ranges	did not appear to affect	did not appear to affect	greater changes in torque	significantly reduced AUC	significantly lower	significantly lower shear stresses	reduced torque	significantly reduced AUC
NCC(=O)O [glycine, reference compound]	–	–	–	–	–	–	–	–	–	no significant difference	–	no significant differences
NCCCC[C@H](N)C(=O)O [lysine, reference compound]	–	–	–	–	–	–	–	–	–	no significant difference	–	no significant differences
